From patent US9422293B2 (priority 2006, dated 2016)
Structures can show the parent of a compound that is named as a salt.

These compounds were tested against rat TRPV1 (Rattus norvegicus (Rat), UniProt O35433). Conditions: read-out: Rat IC50.
rat TRPV1, sequence (O35433 whole entry): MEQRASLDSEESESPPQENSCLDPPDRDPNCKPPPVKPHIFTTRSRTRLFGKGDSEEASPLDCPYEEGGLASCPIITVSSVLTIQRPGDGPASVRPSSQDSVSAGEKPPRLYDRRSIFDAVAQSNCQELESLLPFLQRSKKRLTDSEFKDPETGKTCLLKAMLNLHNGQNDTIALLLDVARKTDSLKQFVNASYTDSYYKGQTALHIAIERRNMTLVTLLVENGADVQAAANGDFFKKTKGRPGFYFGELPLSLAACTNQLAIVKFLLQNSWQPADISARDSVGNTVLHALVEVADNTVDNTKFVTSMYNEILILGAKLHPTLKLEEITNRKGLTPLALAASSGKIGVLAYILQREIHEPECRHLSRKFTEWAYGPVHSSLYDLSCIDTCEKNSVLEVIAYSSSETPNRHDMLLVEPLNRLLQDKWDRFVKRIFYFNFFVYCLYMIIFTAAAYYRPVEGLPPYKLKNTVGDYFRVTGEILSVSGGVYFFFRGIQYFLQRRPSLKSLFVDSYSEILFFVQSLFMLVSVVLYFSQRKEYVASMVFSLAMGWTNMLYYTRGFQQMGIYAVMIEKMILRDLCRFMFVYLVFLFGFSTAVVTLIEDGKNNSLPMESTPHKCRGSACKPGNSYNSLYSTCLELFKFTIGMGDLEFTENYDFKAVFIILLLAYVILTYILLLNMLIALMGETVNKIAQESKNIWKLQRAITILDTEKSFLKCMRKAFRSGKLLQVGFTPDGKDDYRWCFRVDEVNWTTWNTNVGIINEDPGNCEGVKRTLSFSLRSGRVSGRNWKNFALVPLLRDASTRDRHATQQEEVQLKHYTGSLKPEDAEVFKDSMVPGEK
Method: Biological Testing: Functional Assay: Block of Capsaicin-Induced Ca^2+ Influx A. Human Assay
Cells were passaged frequently, every 3-5 days, to avoid overgrowth, depletion of essential medium components, or acidic medium exposure. Cells were passaged using a brief wash in 0.05% trypsin with 1 mM EDTA, followed by dissociation in divalent-free phosphate-buffered saline (Hyclone #SH30028.02). […] The assay buffer was composed of 130 mM NaCl, 2 mM KCl, 2 mM MgCl2, 10 mM HEPES, 5 mM glucose, and either 2 mM or 20 μM CaCl2. On the day of the experiment, the culture medium was replaced with 2 mM calcium assay buffer using an automated plate washer (ELx405; Biotek, VT). […] After loading the cells, the dye solution was replaced with 50 μL/well of 20 μM calcium assay buffer using the ELx405 plate washer. Test compounds (50 μL/well) were added to the plate and incubated for 30 min. […] The IC50 values were determined. […] The contents of the wells were mixed 3 times (40 μL mix volume) immediately after the additions were made. Concentration dependence of block was determined by exposing each well of cells in duplicate rows of a 96 well plate to a serial dilution of test compound. The concentration series usually started at 10 μM with a three-fold serial decrement in concentration. The magnitude of the capsaicin response was determined by measuring the change in fluo3 fluorescence before and 100 seconds after the addition of the agonist. Data were analyzed using a non-linear regression program (Origin; OriginLab, MA). IC50 values shown are the average (mean) of the results obtained.
The assay was performed as described above, using HEK293 cells transfected with rat TRPV1 (rTRPV1/HEK293). […] IC50 values shown are the average (mean) of the results obtained.
`Cc1cc(C(F)(F)F)ccc1Nc1nc(N2CCCC2C(C)C)nc2c1CCN(c1ncccc1C(F)(F)F)CC2` (stereo not drawn) [Example 269, 2-[2-(1-Methylethyl)pyrrolidin-1-yl]-N-[2-methyl-4-(trifluoromethyl)phenyl]-7-[3-(trifluoromethyl)pyridin-2-yl]-6,7,8,9-tetrahydro-5H-pyrimido[4,5-d]azepin-4-amine] showed an IC50 of 180 nM.
With `FC(F)(F)c1ccc(Nc2nc(N[C@@H]3CCOC3)nc3c2CCN(c2ncccc2C(F)(F)F)CC3)nc1` [Example 263, N^2-[(3R)-Tetrahydrofuran-3-yl]-7-[3-(trifluoromethyl)pyridin-2-yl]-N^4-[5-(trifluoromethyl)pyridin-2-yl]-6,7,8,9-tetrahydro-5H-pyrimido[4,5-d]azepine-2,4-diamine] the IC50 was 1460 nM.
With `FC(F)(F)c1cccnc1N1CCc2nc(N3CCCCCC3)nc(NCc3ccc(Cl)c(Cl)c3)c2CC1` [Example 255, 2-Azepan-1-yl-N-[(3,4-dichlorophenyl)methyl]-7-[3-(trifluoromethyl)pyridin-2-yl]-6,7,8,9-tetrahydro-5H-pyrimido[4,5-d]azepin-4-amine] the IC50 was 700 nM.
For `CN1CCC(C)(C)c2ccc(Nc3nc(N4CCCCC4)nc4c3CCN(c3ncccc3C(F)(F)F)CC4)cc21` [Example 164, [2-Piperidin-1-yl-7-(3-trifluoromethyl-pyridin-2-yl)-6,7,8,9-tetrahydro-5H-pyrimido[4,5-d]azepin-4-yl]-(1,4,4-trimethyl-1,2,3,4-tetrahydro-quinolin-7-yl)-amine hydrochloride salt], the IC50 was 20 nM.
`Cc1cc(C(F)(F)F)ccc1Nc1nc(SC2CCOC2C)nc2c1CCN(c1ncccc1C(F)(F)F)CC2` (stereo not drawn) [Example 368, 2,5-Anhydro-1,4-dideoxy-3-S-(4-{[2-methyl-4-(trifluoromethyl)phenyl]amino}-7-[3-(trifluoromethyl)pyridin-2-yl]-6,7,8,9-tetrahydro-5H-pyrimido[4,5-d]azepin-2-yl)-3-thiopentitol] was tested, and the IC50 was 20 nM.
Work on `CC(C)c1nc2c(c(Nc3ccc(C(F)(F)F)cc3)n1)CCN(c1ccccc1N)CC2` [Example 84, [7-(2-Amino-phenyl)-2-isopropyl-6,7,8,9-tetrahydro-5H-pyrimido[4,5-d]azepin-4-yl]-(4-trifluoromethyl-phenyl)-amine] yielded an IC50 of over 20000 nM.
For `CN1CCCc2ccc(Nc3nc(OC4CCCC4)nc4c3CCN(c3ncccc3C(F)(F)F)CC4)cc21` [Example 324, 2-(Cyclopentyloxy)-N-(1-methyl-1,2,3,4-tetrahydroquinolin-7-yl)-7-[3-(trifluoromethyl)pyridin-2-yl]-6,7,8,9-tetrahydro-5H-pyrimido[4,5-d]azepin-4-amine], the IC50 was 100 nM.
`CC(C)(C#N)c1ccc(Nc2nc(N3CCOCC3)nc3c2CCN(c2ncccc2C(F)(F)F)CC3)cc1` [Example 382, 2-Methyl-2-{4-[2-morpholin-4-yl-7-(3-trifluoromethyl-pyridin-2-yl)-6,7,8,9-tetrahydro-5H-pyrimido[4,5-d]azepin-4-ylamino]-phenyl}-propionitrile] was tested, and the IC50 was 40 nM.
`Fc1cc(C(F)(F)F)ccc1Nc1nc(N2CCCCC2)nc2c1CCN(c1ncccc1C(F)(F)F)CC2` [Example 166] showed an IC50 of 380 nM.
`CN(C)c1nc2c(c(NCc3ccccc3)n1)CCN(c1ncccc1C(F)(F)F)CC2` [Example 70B, N^4-Benzyl-N^2,N^2-dimethyl-7-(3-trifluoromethyl-pyridin-2-yl)-6,7,8,9-tetrahydro-5H-pyrimido[4,5-d]azepine-2,4-diamine trifluoroacetic acid salt] showed an IC50 of 4400 nM.
`CC(C)c1nc2c(c(Nc3ccc(C(C)(C)C)cc3)n1)CCN(c1ncc([N+](=O)[O-])cc1C(F)(F)F)CC2` [Example 290, N-[4-(1,1-Dimethylethyl)phenyl]-2-(1-methylethyl)-7-[5-nitro-3-(trifluoromethyl)pyridin-2-yl]-6,7,8,9-tetrahydro-5H-pyrimido[4,5-d]azepin-4-amine] was tested, and the IC50 was 100 nM.
Work on `Cc1nc2ccccc2nc1N1CCc2nc(C(C)C)nc(Nc3ccc(C(F)(F)F)cc3)c2CC1` [Example 34, [2-Isopropyl-7-(3-methyl-quinoxalin-2-yl)-6,7,8,9-tetrahydro-5H-pyrimido-[4,5-d]azepin-4-yl]-(4-trifluoromethyl-phenyl)-amine] yielded an IC50 of 360 nM.
Work on `Cc1cc(C(F)(F)F)ccc1Nc1nc(N2CCOC(CO)C2)nc2c1CCN(c1ncccc1C(F)(F)F)CC2` (stereo not drawn) [Example 273, [4-(4-{[2-Methyl-4-(trifluoromethyl)phenyl]amino}-7-[3-(trifluoromethyl)pyridin-2-yl]-6,7,8,9-tetrahydro-5H-pyrimido[4,5-d]azepin-2-yl)morpholin-2-yl]methanol] yielded an IC50 of 680 nM.
`CC(C)(C)c1ccc(Nc2nc(N3CCCCC3)nc3c2CCN(c2ncccc2C(F)(F)F)CC3)cc1` [Example 42, (4-tert-Butyl-phenyl)-[2-piperidin-1-yl-7-(3-trifluoromethyl-pyridin-2-yl)-6,7,8,9-tetrahydro-5H-pyrimido[4,5-d]azepin-4-yl]-amine] was tested, and the IC50 was 49 nM.
`CC(C)c1nc2c(c(Nc3ccc(N)cc3)n1)CCN(c1ncccc1C(F)(F)F)CC2` [Example 198, N-{2-(1-Methylethyl)-7-[3-(trifluoromethyl)pyridin-2-yl]-6,7,8,9-tetrahydro-5H-pyrimido[4,5-d]azepin-4-yl}benzene-1,4-diamine trifluoroacetic acid salt] gave an IC50 of 9160 nM.
`COc1ccccc1CCNc1nc(C(C)C)nc2c1CCN(c1ncccc1C(F)(F)F)CC2` [Example 126, 2-(1-Methylethyl)-N-{2-[2-(methyloxy)phenyl]ethyl}-7-[3-(trifluoromethyl)pyridin-2-yl]-6,7,8,9-tetrahydro-5H-pyrimido[4,5-d]azepin-4-amine] was tested, and the IC50 was 1190 nM.
With `CN(C)c1nc2c(c(Nc3ccc(C(F)(F)F)cc3)n1)CCN(c1ncccc1C(F)(F)F)CC2` [Example 49, N^2,N^2-Dimethyl-N^4-(4-trifluoromethyl-phenyl)-7-(3-trifluoromethyl-pyridin-2-yl)-6,7,8,9-tetrahydro-5H-pyrimido[4,5-d]azepine-2,4-diamine] the IC50 was 240 nM.
In the case of `FC(F)(F)c1ccc(Nc2nc(N3CCCCCC3)nc3c2CCN(c2ncccc2C(F)(F)F)CC3)cn1` [Example 223, 2-Azepan-1-yl-7-[3-(trifluoromethyl)pyridin-2-yl]-N-[6-(trifluoromethyl)pyridin-3-yl]-6,7,8,9-tetrahydro-5H-pyrimido[4,5-d]azepin-4-amine], the IC50 is reported as 30 nM.
Work on `CSc1nc2c(c(Nc3ccc(C(F)(F)F)cc3Cl)n1)CCN(c1ncccc1C(F)(F)F)CC2` [Example 203, N-[2-Chloro-4-(trifluoromethyl)phenyl]-2-(methylsulfanyl)-7-[3-(trifluoromethyl)pyridin-2-yl]-6,7,8,9-tetrahydro-5H-pyrimido[4,5-d]azepin-4-amine] yielded an IC50 of over 6670 nM.
In the case of `CC(C)(C)c1ccc(Nc2nc(N3CCCC3)nc3c2CCN(c2ncccc2C(F)(F)F)CC3)cc1` [Example 248, N-[4-(1,1-Dimethylethyl)phenyl]-2-pyrrolidin-1-yl-7-[3-(trifluoromethyl)pyridin-2-yl]-6,7,8,9-tetrahydro-5H-pyrimido[4,5-d]azepin-4-amine], the IC50 is reported as 530 nM.
`CC(C)c1nc2c(c(NCCc3c(Cl)cccc3Cl)n1)CCN(c1ncccc1C(F)(F)F)CC2` [Example 125, N-[2-(2,6-Dichlorophenyl)ethyl]-2-(1-methylethyl)-7-[3-(trifluoromethyl)pyridin-2-yl]-6,7,8,9-tetrahydro-5H-pyrimido[4,5-d]azepin-4-amine] was tested, and the IC50 was 610 nM.
